Measurements as given in patent US20240342138A1, “MICROTUBULE TARGETING AGENTS” (BPGbio, Inc., priority 2023, published 2024).

What was measured:
CTG-1520 PDX tumors = test: CTG-1520 PDX tumor growth in nude mice; assay type: in vivo
Method: FIG. 10A-10C show potency of Compound 1 in a patient-derived organoid model of taxane resistance. A) Overview of study design. B) CTG-1520 was implanted subcutaneously in nude mice and tumors were allowed to grow to a volume of 210 mm^3 followed by randomization of animals into three (3) groups (vehicle control, 75 mg/kg, 150 mg/kg Compound 1) with 12 animals per group. A Compound 1 solid dispersion was prepared prior to each dosing and administered by oral gavage two times a day (BID). Mean tumor volume of each group over time and the growth of tumor in each individual animal was graphed. For each individual animal of vehicle group tumor growth inhibition (TGI) % was calculated based on the tumor growth inhibition of individual tumor at each given day of the study compared to the average of the group for that given day of the study. P-values were calculated using two-tailed distribution and two-sample equal variance (homoscedastic) for each group treated with Compound 1 for each given day of the study in reference to vehicle control. ns p>0.05; *p≤0.05; **p≤0.01. C) Body weight of each individual animal was measured on days 0, 3, 6, 10, 13, and 17 and graphed using Graphpad Prism.
In a next step, the ability of Compound 1 to inhibit the growth of CTG-1520 PDX in nude mice was assessed. CTG-1520 was implanted subcutaneously in nude mice and tumors were allowed to grow to a volume of 210 mm^3 followed by randomization of animals into three (3) groups (vehicle control; 75 mg/kg, and 150 mg/kg Compound 1) with 12 animals per group (see FIG. 10A). A Compound 1 solid dispersion was administered by oral gavage two times a day (BID). All animals, except one (1) from the vehicle control group, survived through the study (17 days). One (1) animal from the vehicle control group reached the endpoint of 2000 mm^3 prior to day 17 and was eliminated from all calculations.

[1] = tested on: patient-derived organoids (PDOs); test: Viability of patient-derived organoids of multiple tumor types (CellTiter-Glo, 5 days); assay type: cell-based, human
Method: PDOs were treated with Compound 1 or controls (vehicle control—0.1% DMSO, positive control—10% DMSO) for 5 days. Viability was assessed using the CellTiter-Glo® assay. IC50 and maximal (max) inhibition values were extrapolated from the viability curves. Exemplars of models deemed to be highly responsive (>60% max inhibition; A), responsive (40-60% max inhibition; B), and non-responsive (<40% max inhibition; C) to Compound 1 are shown. Summary of all models tested (D); NR (No Regression, ambiguous nonlinear regression curves or R2<0.65) and NA (Not Applicable, ambiguous maximum inhibition). Compiled data of N=4 replicates.
Potency of Compound 1 was evaluated in a panel of patient-derived organoids (PDOs) representative of multiple tumor types.
• 1. Cryopreserved samples (200-300 mg or more depending on study design) were prepared as described below. • 2. The collected tumors were dissociated manually (using a tumor mincing process previously developed) or using the Gentle MACS Dissociator and human Tumor Dissociation Kit (Miltenyi). After preparation, tumor fragments were cultured in DMEM+10% FBS+1× antibiotic/antimycotic (“anti-anti”) plus 1:500 Primocin antimicrobial agent for up to 7 days before filtering out large fragments (using a 500 μm filter followed by 200 μm filters). • 3. Flow-through was cultured in: Cell-Tak coated low volume flat-bottom 384-well assay plates. • 4. 10× concentrations of test agent (or DMSO as vehicle) was added to media in volumes that will vary depending on culturing conditions. • 5. Each group had quadruplicate wells, including 0.1% DMSO (final as vehicle) and 10% DMSO as positive control. • 6. PBS was plated in the perimeter wells to avoid edge-effect artifacts. • 7. Cells were treated for 5 days and viability read via Cell Titer Glo. Viability was quantitatively assessed via Cell Titer Glo at Day 0 (baseline), Day 6 (baseline), and Day 6 (compound treatment-full dose response). […]

A549 tumors = test: Lung adenocarcinoma xenograft model; assay type: in vivo, nude mice; conditions: for Highest TGI (%): Day 7
Method: FIG. 13A-13B show efficacy of Compound 1 in a lung adenocarcinoma xenograft model (A549). A) In vitro potency of Compound 1 in A549 cells as evaluated by ATPlite 1Step™ Perkin Elmer (performed by NTRC Oncolines). B) A549 cells (5×10^6) were implanted subcutaneously in athymic female nude mice and tumors were allowed to grow to a volume of ˜112 mm^3 followed by randomization of animals into three (3) groups (vehicle control, 75 mg/kg, 150 mg/kg Compound 1) with 12 animals per group. A Compound 1 solid dispersion was prepared prior to each dosing and administered by oral gavage two times a day (BID). Mean tumor volume of each group over time and the growth of tumor in each individual animal was graphed. For each individual animal of […] group TGI (%) was calculated based on the tumor growth inhibition of individual tumor at each given day of the study compared to the average of the group for that given day of the study. P-values were calculated using two-tailed distribution and two-sample equal variance (homoscedastic) for each group treated with Compound 1 for each given day of the study in reference to vehicle control. NS p>0.05; *p≤0.05; **p≤0.01; ***p p≤0.001; **** p≤0.0001.
Anti-tumor efficacy of Compound 1 was evaluated against three (3) different preclinical oncology mice models of colorectal cancer, prostate cancer, and lung adenocarcinoma (see Table 5 below). For this purpose, an oral formulation of Compound 1 was used.
A549 is a human lung adenocarcinoma cell line isolated from the lung tissue of their origin. […] A549 cells were implanted subcutaneously in nude mice and tumors were allowed to grow to an average volume of 112 mm^3 followed by randomization into three (3) groups consisting of vehicle control, 75 mg/kg and 150 mg/kg Compound 1 (12 animals per group). A Compound 1 solid dispersion was administered by oral gavage two times a day (BID). All animals remained in the study until Day 28 except one animal from Group 3 (Animal #29), which exited the study on Day 11 due to more than 20% body weight loss. This animal was excluded from all analysis. Data from Day 14-18 were excluded from the analysis due to inconsistencies in data collection methods.

In the case of `COc1ccccc1-c1nc(CNC(=O)c2ccccc2OC(F)F)n[nH]1` [Compound 1, 2-(difluoromethoxy)-N-[[5-(2-methoxyphenyl)-1H-1,2,4-triazol-3-yl]methyl]benzamide], the “Tumor volume relative to vehicle control” value (CTG-1520 PDX tumors; 75 mg/kg BID oral gavage, 17 days) is reported as “reduced tumor volume relative to the vehicle control, but to a lesser extent than the 150 mg/kg dose”, the Tumor growth inhibition (CTG-1520 PDX tumors; 150 mg/kg BID oral gavage, 17 days) is reported as “significant tumor growth inhibition” and the Body weight (CTG-1520 PDX tumors; 75 and 150 mg/kg BID, FIG. 10C) is reported as “No body weight loss”. For the same compound, the “Response of PDO models (max inhibition class)” value ([1]; Glioblastoma multiforme, SCLC, ovarian, endometrial, breast, prostate cancer, renal cell carcinoma) was “responsive (responsive (40-60% max inhibition))”, the “Response of PDO models (max inhibition class)” value ([1]; colorectal cancer (FIG. 7C)) was “non-responsive (non-responsive (<40% max inhibition))” and the “Response of PDO models (max inhibition class)” value ([1]; endometrial cancer, SCLC, sarcoma, breast cancer, NSCLC, ovarian cancer) was “highly responsive (highly responsive (>60% max inhibition))”. For the same compound, the “Highest TGI (%)” value (A549 tumors; 75 mg/kg BID oral) was 36.61%, the “Highest TGI (%)” value (A549 tumors; 150 mg/kg BID oral) was 55.43% and the “Maximum TGI (%), end of the study” value (A549 tumors; 150 mg/kg dose) was 34.64%. For the same compound, the Body weight (A549 tumors; 75 and 150 mg/kg) was “no drug effect” and the Average tumor growth (A549 tumors; all doses evaluated, FIG. 13B) was “decreased the average tumor growth at all doses evaluated”.
